In paper PMC7494739, “Evaluation of Artificial Intelligence in Participating Structure-Based Virtual Screening for Identifying Novel Interleukin-1 Receptor Associated Kinase-1 Inhibitors” (Frontiers in Oncology, 2020):
pIC50, pKd: −log10 of the molar value.

Assays:
IRAK1 [1] = settings: Figure 1; cited from earlier work
IRAK1 [2] = settings: Figure 1; cited from earlier work; remark: listed apart in the source
IRAK1 kinase = IRAK1 kinase (Homo sapiens, UniProt P51617); test: IRAK1 bioactivity test (mobility shift assay); type: biochemical; settings: for pIC50: Table 3, initial concentration 100 μM, serial 10-fold dilution to 1 nM
IRAK1 kinase, sequence (P51617 whole entry): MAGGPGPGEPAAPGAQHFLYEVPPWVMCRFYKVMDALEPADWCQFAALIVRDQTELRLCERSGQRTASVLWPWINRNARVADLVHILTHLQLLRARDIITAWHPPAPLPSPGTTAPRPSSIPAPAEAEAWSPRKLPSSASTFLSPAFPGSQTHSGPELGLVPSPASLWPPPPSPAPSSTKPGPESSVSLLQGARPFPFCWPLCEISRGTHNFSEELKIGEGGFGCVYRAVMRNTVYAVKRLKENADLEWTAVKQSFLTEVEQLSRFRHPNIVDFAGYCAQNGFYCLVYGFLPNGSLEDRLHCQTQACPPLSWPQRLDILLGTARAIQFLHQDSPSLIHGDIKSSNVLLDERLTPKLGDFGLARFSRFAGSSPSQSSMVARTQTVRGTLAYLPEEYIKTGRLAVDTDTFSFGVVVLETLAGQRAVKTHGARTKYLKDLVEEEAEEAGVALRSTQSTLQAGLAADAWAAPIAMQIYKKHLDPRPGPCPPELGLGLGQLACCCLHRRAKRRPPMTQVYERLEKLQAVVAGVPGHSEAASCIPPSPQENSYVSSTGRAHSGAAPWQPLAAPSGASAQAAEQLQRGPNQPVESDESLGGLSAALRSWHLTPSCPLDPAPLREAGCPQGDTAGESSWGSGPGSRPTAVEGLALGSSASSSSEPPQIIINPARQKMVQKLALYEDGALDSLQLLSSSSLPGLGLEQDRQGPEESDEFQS

Compound | pIC50 (IRAK1 [2]) | pIC50 (IRAK1 kinase) | other results
CC(C)NC(=O)[C@H]1CC[C@@H](n2/c(=N/C(=O)c3cc(F)cc(F)c3)[nH]c3ccc(CN4CCC(C(C)(C)O)CC4)cc32)CC1 [ALK inhibitor 2] | – | – | pKd (IRAK1 [1]): 8.25
C1=C/COCc2cc(ccc2OCCN2CCCC2)Nc2nccc(n2)-c2cccc(c2)COC/1 [JAK/FLT3 inhibitor 3, Pacritinib] | 7.87 | – | –
COc1cccc(Nc2nnc(-c3cc4ccc(O)cc4oc3=O)s2)c1 [K231-1211] | – | – | Inhibition/% (IRAK1 kinase; compound at 20 μM): -10.5%
O=C(Nc1nc2ccccc2n1CCN1CCOCC1)c1cccc([N+](=O)[O-])c1 [benzimidazole derivative 1] | 6.52 | – | –
NC(=O)COc1ccc2occ(C(=O)c3ccc(Cl)cc3)c2c1 [compound 4] | – | 4.74 | –
COc1ccc(C(=O)c2coc3ccc(OCC(N)=O)cc23)cc1OC [compound 5] | – | 4.62 | –
